Data: patent US7214716B2, “Agonists specific for the peripheral cannabinoid receptor” (Yissum Research Development Co. of the Hebrew University of …, priority 2000, dated 2007)

Assays:
female C57/BL6 mice = test system: female C57/BL6 mice
Description: This difference in binding is reflected in the results of the pharmacological assays. […] Such effects are considered to be mediated by the CBI receptor.
R. (1993) Eur. J. Pharmacol. 231, 313–314]. At various times after injection mice were tested in four assays consecutively. The four assays were (1) motor activity (ambulation and rearing) in an open field (20×30 cm, divided into 12 squares of equal size) for 8 min; (2) immobility (“catalepsy”) on a ring of 5.5 cm diameter for 4 min; (3) body temperature with a telethermometer (Yellow Springs Instruments Co.); and (4) analgesia on a hot plate maintained at 55° C., measured as the latency (in seconds) until the first hind paw lick or jump from the plate (the latter response was rarely observed) with a maximum of 45 s.

EAE in Lewis rats = experiment: Experimental autoimmune encephalomyelitis (EAE); type: in vivo, rat; settings: intravenous, treatment from day 10 to day 18 post induction
[1] = test system: formalin-induced peripheral pain in mice; experiment: Formalin test for peripheral pain; type: in vivo, mouse
Description: Pain was assessed as the total number of licks of the injected hindpaw recorded for the duration of one hr. Early (5 min) and late (25–60 min) phase pain were observed as described in Calignano, A., La Rana, G., Giuffrida, A. & Piomelli, D. (1998) Nature (London) 394, 277–280.
Pain mediated by the peripheral nervous system, was tested in the “formalin test” for cutaneous (peripheral) pain [Tjolson, A., Berge, O-G., Hunskaar, S., Rosland, J. H. and Hole, K. (1992) Pain, 51, 5–17; Calignano, A., La Rana, G., Giuffrida, A & Piomelli, D. (1998) Nature (London) 394, 277–280; and Jagger, S. I., Hasnie, F. S., Sellaturay, S. and Rice, A.S.C. (1998) Pain 76, 189–199]. […] Immediately after formalin administration pain was assessed every 5 min for 1 hr by the number of times the animal licks the formalin-injected paw.

[2] = test system: arachidonic acid-induced swelling of the ear in female Sabra mice; experiment: Arachidonic acid-induced ear inflammation in the mouse; type: in vivo; settings: for arachidonic acid-induced ear swelling: injected 30 to 90 min before arachidonic acid
Description: The other ear was treated with […] of EtOH and served as a control. Ear swelling was assessed by measuring ear thickness with a dial thickness gauge (Mitutoyo, Japan) just before treatment and every 15 min after A′A application for 90 min. […] N=5 for each treatment group.
Ear inflammation was measured by assessing ear tissue swelling after topical application of arachidonic acid. […] J., Wagner, B., Ballaron, S. & De Young, L. M. (1984) J. Invest. Dernlatol. 82, 367–371]. […] The opposite ear served as a control ([…] ethanol). Ear thickness was determined (in 0.01 mm units) every 15 min for 90 min starting immediately after arachidonic acid application using a dial thickness gauge (Mitutoyo, Japan).

[3] = test system: acetic acid induced inflammatory bowel disease in male Sprague Dawley rats; experiment: Acetic acid induced inflammatory bowel disease; type: in vivo, rat
Description: Animals were clinically followed for 1 week and body weight, presence of blood in the stool, and stool consistency were monitored and recorded daily and scored on a scale of 0–4 according to the scale provided in Table 1 [Murthy et al., Dig. Dis. Sci., 38(9), 1722–1734, (1993)].
Seven days post disease induction animals were euthanized with phenobarbital (100 mg/kg i.p.), the whole colon excised, slit longitudinally, and examined under a magnifying glass. Any visible damage to the colon was recorded and scored.
Clinical outcome was analyzed using analysis of variance (ANOVA) followed by Duncan's post hoc test. A non-parametric test (Wilcox Rank Sum Test) was used to evaluate the gross pathology findings.

[4] = test system: experimental autoimmune arthritis in CD-1 male mice; experiment: Experimental autoimmune arthritis (collagen type 2 in complete Freund's adjuvant); type: in vivo, mouse
Description: Experimental autoimmune arthritis is induced in animals by immunization with collagen type 2 in complete Freund's adjuvant.
Adult CD-1 male mice (27–33 gr), at least five per treatment group, are used in the study. Each animal is administered 100 μg/ml collagen type 2 in 0.1 mL complete Freund's adjuvant. The collagen is administered subcutaneously into the base of the tail. The volume of each hind paw is measured using a plethysmometer (commercially available from Hugo Basill of Italy) before collagen administration and on days 1, 4, 7, 10, 13, and 16 of treatment (30 minutes after drug treatment). […] All treatments are administered intraperitoneally. […] The same procedure is performed with blank cosolvent. Diclofenac is prepared at Pharmos, as a solution of 1 mg/ml. At the same time the paws are measured they are also clinically evaluated according to the method of R. O Williams, Proc. Natl. Acad. Sci. USA: 89: 9784–9788, wherein 0=normal, 1=slight swelling and erythema, 2=pronounced edematous swelling, and 3=joint rigidity.
The major arthritis related sign that is evident in experimental autoimmune arthritis is swelling of the paws. […] The differences are compared using a non parametric analysis (Wilcoxon Rank Sum Test).

female Sabra mice = experiment: Inhibition of intestinal motility (fecal pellets voided over 2 hr); type: in vivo, mouse
Description: Intestinal motility was assessed every 15 min (over a 2 hr period) by the cumulative number of fecal pellets voided in a two hour period after separating the mice into individual cages. […] By 90 min all treated groups differed from controls.
Rectal temperature was also recorded as a measure of central activity.

anesthetized rats = experiment: Blood pressure assay in anesthetized cannulated rats; type: in vivo, rat
Description: Systemic blood pressure was monitored in male rats (Sabra strain, 270–350 g). A chronic cannula (P 50, Clay Adams) was implanted into the femoral artery under pentobarbital anesthesia (60 mg/kg). The jugular vein was cannulated for drug administration. The arterial cannula was attached to a pressure transducer (Db23, Statham City) and the transducer was connected to a data acquisition system (CODAS software and scroller card, Dataq, Ohio). Pressure was sampled at a rate of 1/s.
Recordings were taken for 30–60 min before treatment.

CB2 receptor = CB2 receptor (Homo sapiens, UniProt P34972); settings: background, known compound; cited from earlier work
Sequence of CB2 receptor (P34972 whole entry): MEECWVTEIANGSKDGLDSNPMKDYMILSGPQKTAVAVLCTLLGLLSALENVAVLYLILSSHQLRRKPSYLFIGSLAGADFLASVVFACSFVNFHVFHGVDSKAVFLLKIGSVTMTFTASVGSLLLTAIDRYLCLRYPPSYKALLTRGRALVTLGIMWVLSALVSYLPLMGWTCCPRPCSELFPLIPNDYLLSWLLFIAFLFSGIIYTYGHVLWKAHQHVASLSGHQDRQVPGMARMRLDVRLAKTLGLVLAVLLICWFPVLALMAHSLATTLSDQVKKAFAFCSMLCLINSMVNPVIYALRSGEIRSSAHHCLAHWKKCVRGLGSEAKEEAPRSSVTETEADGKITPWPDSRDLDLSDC

[5] = 40 mg/kg i.p., tested 10, 30 or 150 min after administration

CCCCCCC(C)(C)c1cc(OC)c([C@H]2C=C(CO)[C@H]3CC2C3(C)C)c(OC)c1 (single isomer, unassigned; (+)) [HU-308, (+)-(1-a-H,-(3-H,5-a-H)-4-(2,6-dimethoxy-4-(1,1-dimethylheptyl)phenyl]-6,6-dimethylbicycloj3.1.1]hept-2-ene-2-carbinol]
activity in an open field trial (ambulation, rearing) (female C57/BL6 mice; [5]): no decrease in their activity in an open field trial
analgesia on a hot plate (female C57/BL6 mice; [5]): no analgesia on a hot plate
body temperature (female C57/BL6 mice; [5]): no reduction in body temperature
catalepsy (immobility on a ring) (female C57/BL6 mice; [5]): no catalepsy
activity in the tetrad of behavioral tests specific for THC-type CNS activity (female C57/BL6 mice; mice, summary): no activity
mean clinical score of EAE (EAE in Lewis rats): diminution of mean clinical score
formalin-induced peripheral pain (licks of injected hindpaw), late phase ([1]; 50 mg/kg i.p., 90 min before formalin, late phase (25-60 min)): reduced peripheral pain during the late phase of pain behavior
formalin-induced peripheral pain, early versus late phase ([1]; 50 mg/kg i.p., early (5 min) and late (25-60 min) phase): effects were only observed during the late phase
peripheral analgetic effect after CB1 antagonist SR 141716A ([1]; SR 141716A injected 15 min before HU-308): not by SR 141716A
peripheral analgetic effect after CB2 antagonist SR 144528 ([1]; SR144528 injected 15 min before HU-308 50 mg/kg i.p.): prevented by SR 144528
arachidonic acid-induced ear swelling ([2]; 50 mg/kg i.p.): significant reduction of arachidonic acid-induced ear swelling
anti-inflammatory effect of HU-308 after CB1 antagonist SR 141716A ([2]; SR 141716A 5 mg/kg administered 15 min before HU-308 50 mg/kg i.p.): did not prevent the anti-inflammatory effect of HU-308
anti-inflammatory effect of HU-308 after CB2 antagonist SR 144528 ([2]; SR 144528 0.5 mg/kg before HU-308 50 mg/kg i.p.): reduced the anti-inflammatory effect of HU-308
severity of acid induced inflammatory bowel disease ([3]; 10 and 20 mg/kg i.p. daily for seven days): can reduce the severity of acid induced inflammatory bowel disease
reduction of pathological lesion severity in the gastrointestinal tract (gross pathology score) compared to vehicle ([3]; i.p. daily for 7 days, p<0.05 for 10 mg/kg, p=0.052 for 20 mg/kg): 35%
incidence and severity of swelling of the paws ([4]; 2-15 mg/kg i.p. every three days or once daily): decreased incidence and severity of swelling of the paws
inhibition of intestinal mobility (female Sabra mice; 20 mg/kg i.p., mice): complete inhibition of intestinal mobility
number of fecal boli voided vs controls (female Sabra mice; 100 mg/kg i.p., after 75 min): significantly fewer boli than controls
inhibition of intestinal motility in presence of CB2 antagonist SR144528 (female Sabra mice; HU-308 plus SR144528): in part blocked this effect
effect on blood pressure (anesthetized rats; 30 mg/kg i.v., anesthetized cannulated rats): lowers blood pressure
hypotensive effect after CB1 antagonist SR 141716A (anesthetized rats; SR141716A 3 mg/kg injected 5 min prior to HU-308 30 mg/kg i.v.): not by the CB1 antagonist SR 141716A
hypotensive effect after CB2 antagonist SR 144528 (anesthetized rats; SR144528 1 mg/kg injected 5 min prior to HU-308 30 mg/kg i.v.): blocked by the CB2 antagonist SR 144528
time for blood pressure effect to return to normal after administration (anesthetized rats; i.v. bolus, preliminary observations): < 30 min
effect on blood pressure, lower doses (anesthetized rats; i.v. doses lower than 30 mg/kg): did not have a significant effect

C=C1CC[C@@H]2[C@@H](C1)c1c(OC)cc(C(C)(C)CCCCCC)cc1OC2(C)C [L-759,656]
CB1/CB2 binding ratio (CB2 receptor): > 1000

Cc1c(C(=O)NN2CCCCC2)nn(-c2ccc(Cl)cc2Cl)c1-c1ccc(Cl)cc1 [SR 141716A]
arachidonic acid-induced ear swelling, antagonist by itself ([2]; 5 mg/kg i.p., alone): by itself reduced arachidonic acid-induced ear swelling

O=C(O)Cc1ccccc1Nc1c(Cl)cccc1Cl [diclofenac, reference compound]
paw volume compared to vehicle ([4]; 10 mg/kg i.p. every 3 days, positive control): smaller paw volume compared to the vehicle treated rats, but this difference is not statistically significant

COc1ccc2c(c1)c(CC(=O)O)c(C)n2C(=O)c1ccc(Cl)cc1 [indomethacin]
arachidonic acid-induced ear swelling ([2]; 20 mg/kg i.p.): significant reduction of arachidonic acid-induced ear swelling
anti-inflammatory effect compared with HU-308 (50 mg/kg) ([2]; indomethacin 20 mg/kg i.p.): greater than that produced by HU-308

SR 144528
anti-inflammatory effect, antagonist by itself ([2]; 0.5 mg/kg, alone): did not by itself induce an anti-inflammatory effect
